Results as given in the supplement of paper PMC10307832.

Legend:
Experiment in all cases: relative viability (nuclei count vs DMSO), 5 days (fraction); higher = more cells survive
[1] = compound: C[C@]1(c2nc3c(C(N)=O)cccc3[nH]2)CCCN1 [Veliparib] + CC(=O)Nc1cccc(-n2c(=O)n(C3CC3)c(=O)c3c(Nc4ccc(I)cc4F)n(C)c(=O)c(C)c32)c1 [Trametinib] (partner 0.02 µM)
Procedure, shortened: (§1)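 Lung cancer cell lines, seeded in 1536-well plates, were treated the following day by pin tool with a single drug or with five library-drug doses (not always all listed) in √10 steps on top of a fixed anchor-drug dose. Cells were fixed and nuclei stained in one step after 5 days, and nuclei were counted. Relative viability is the nuclei count for treated wells divided by that for vehicle wells, reported as medians of duplicate plates.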

[2] = compound: COC1=CC=C(C=C1)CN2C=CC3=C2C=C(C=C3)C(=O)NO + CS(=O)(=O)N1CCN(Cc2cc3nc(-c4cccc5[nH]ncc45)nc(N4CCOCC4)c3s2)CC1 [Pictilisib] (partner 1 µM)
Procedure, shortened: as §1

[3] = compound: COC1=CC=C(C=C1)CN2C=CC3=C2C=C(C=C3)C(=O)NO + C[C@@H](Oc1cc(-c2cnn(C3CCNCC3)c2)cnc1N)c1c(Cl)ccc(F)c1Cl [Crizotinib] (partner 1 µM)
Procedure, shortened: as §1

[4] = compound: C[C@]1(c2nc3c(C(N)=O)cccc3[nH]2)CCCN1 [Veliparib] + CC(C)C[C@H](NC(=O)[C@H](Cc1ccccc1)NC(=O)c1cnccn1)B(O)O [Bortezomib] (partner 0.002 µM)
Procedure, shortened: as §1

SW 1573
relative viability ([1]; first compound 0.06325 µM): 0.474
relative viability ([1]; first compound 0.2 µM): 0.52
relative viability ([1]; first compound 0.6325 µM): 0.513
relative viability ([1]; first compound 2 µM): 0.548
relative viability ([2]; first compound 0.253 µM): 0.478
relative viability ([2]; first compound 0.8 µM): 0.554
relative viability ([2]; first compound 2.53 µM): 0.532
relative viability ([2]; first compound 8 µM): 0.486
relative viability ([3]; first compound 0.253 µM): 0.908
relative viability ([3]; first compound 0.8 µM): 0.803
relative viability ([3]; first compound 2.53 µM): 0.755
relative viability ([3]; first compound 8 µM): 0.587
relative viability ([4]; first compound 0.02 µM): 0.951
relative viability ([4]; first compound 0.06325 µM): 0.982
relative viability ([4]; first compound 0.2 µM): 1.07
relative viability ([4]; first compound 0.6325 µM): 0.862
relative viability ([4]; first compound 2 µM): 1.06
